Calls of active or inactive are those of the source. The calls are words filed in the database; no cut-off is given here.
Key:
[1] = system: Jurkat T; assay: Activation of TCR signaling in human Jurkat T cells assessed as increase in LCK phosphorylation preincubated with compound for 1 hrs followed by anti-CD3 stimulation and measured after 45 mins by immunoblot analysis; type: cell-based; conditions: filed as activator, time 105.0 min
[2] = system: Jurkat T; assay: Activation of TCR signaling in human Jurkat T cells assessed as increase in ERK phosphorylation preincubated with compound for 1 hrs followed by anti-CD3 stimulation and measured after 45 mins by immunoblot analysis; type: cell-based; conditions: filed as activator, time 105.0 min
[3] = system: Jurkat T; assay: Activation of TCR signaling in […] transfected human Jurkat T cells assessed as increase in LCK phosphorylation preincubated with compound for 1 hrs followed by anti-CD3 stimulation and measured after 45 mins by immunoblot analysis; type: cell-based; conditions: time 105.0 min
[4] = system: Jurkat T; assay: Activation of TCR signaling in […] transfected human Jurkat T cells assessed as increase in ERK phosphorylation preincubated with compound for 1 hrs followed by anti-CD3 stimulation and measured after 45 mins by immunoblot analysis; type: cell-based; conditions: time 105.0 min
[5] = Toxicity in C57BL/6J syngenic mouse implanted with mouse MC-38 cells assessed as effect on body weight at 50 mg/kg, IG administered twice daily for 14 days; type: organism-based; conditions: in vivo, po, 336 h, time 14 day
[6] = system: MC-38; assay: Antitumor activity against mouse MC-38 cells implanted in syngenic C57BL/6J mouse model assessed as tumor growth inhibition at 50 mg/kg, IG administered twice daily for 14 days relative to control; type: functional; conditions: MC-38, po, 336 h, time 14 day, read-out: TGI
[7] = system: MC-38; assay: Antitumor activity against mouse MC-38 cells implanted in syngenic C57BL/6J mouse model at 50 mg/kg, IG administered twice daily for 14 days by H&E staining based analysis; type: functional, organism-based; conditions: time 14.0 day
[8] = system: MC-38; assay: Antiproliferative activity against mouse MC-38 cells assessed as reduction in cell viability upto 4 uM incubated for 72 hrs by CCK8 assay; type: functional, cell-based
[9] = system: MC-38; assay: Antitumor immunity against mouse MC-38 cells implanted in syngenic C57BL/6J mouse model assessed as increase in CD45+ cell proportion in tumor at 50 mg/kg, IG administered twice daily for 14 days by flow cytometric analysis; type: functional, organism-based; conditions: time 14.0 day
[10] = system: MC-38; assay: Antitumor immunity against mouse MC-38 cells implanted in syngenic C57BL/6J mouse model assessed as increase in CD4+ T cell proportion in tumor at 50 mg/kg, IG administered twice daily for 14 days by flow cytometric analysis; type: functional, organism-based; conditions: time 14.0 day
[11] = system: MC-38; assay: Antitumor immunity against mouse MC-38 cells implanted in syngenic C57BL/6J mouse model assessed as increase in CD8+ T cell proportion in tumor at 50 mg/kg, IG administered twice daily for 14 days by flow cytometric analysis; type: functional, organism-based; conditions: time 14.0 day
[12] = system: MC-38; assay: Antitumor immunity against mouse MC-38 cells implanted in syngenic C57BL/6J mouse model assessed as increase in Ki67 positive CD4+ T cells at 50 mg/kg, IG administered twice daily for 14 days by Ki67 staining based flow cytometric analysis; type: functional, organism-based; conditions: time 14.0 day
[13] = system: MC-38; assay: Antitumor immunity against mouse MC-38 cells implanted in syngenic C57BL/6J mouse model assessed as increase in Ki67 positive CD8+ T cells at 50 mg/kg, IG administered twice daily for 14 days by Ki67 staining based flow cytometric analysis; type: functional, organism-based; conditions: time 14.0 day
[14] = system: MC-38; assay: Antitumor immunity against mouse MC-38 cells implanted in syngenic C57BL/6J mouse model assessed as increase in tumor infiltration of CD8+ T cells at 50 mg/kg, IG administered twice daily for 14 days by DAPI staining based immunofluorescence analysis; type: functional, organism-based; conditions: time 14.0 day
[15] = system: MC-38; assay: Antitumor immunity against mouse MC-38 cells implanted in syngenic C57BL/6J mouse model assessed as increase in IFN-gamma expression at 50 mg/kg, IG administered twice daily for 14 days; type: functional, organism-based; conditions: time 14.0 day
[16] = system: MC-38; assay: Antitumor immunity against mouse MC-38 cells implanted in syngenic C57BL/6J mouse model assessed as increase in TNF-alpha expression at 50 mg/kg, IG administered twice daily for 14 days; type: functional, organism-based; conditions: time 14.0 day
[17] = system: MC-38; assay: Antitumor immunity against mouse MC-38 cells implanted in syngenic C57BL/6J mouse model assessed as increase in M1 tumor associated macrophage proportion in tumor at 50 mg/kg, IG administered twice daily for 14 days by flow cytometric analysis; type: functional, organism-based; conditions: time 14.0 day
[18] = system: MC-38; assay: Antitumor immunity against mouse MC-38 cells implanted in syngenic C57BL/6J mouse model assessed as inhibition of M2 polarization of tumor associated macrophage in tumor at 50 mg/kg, IG administered twice daily for 14 days by flow cytometric analysis; type: functional, organism-based; conditions: time 14.0 day
[19] = system: MC-38; assay: Antitumor immunity against mouse MC-38 cells implanted in syngenic C57BL/6J mouse model assessed as increase in M1 tumor associated macrophage proportion in spleen at 50 mg/kg, IG administered twice daily for 14 days by flow cytometric analysis; type: functional, organism-based; conditions: time 14.0 day
[20] = system: MC-38; assay: Antitumor immunity against mouse MC-38 cells implanted in syngenic C57BL/6J mouse model assessed as inhibition of M2 polarization of tumor associated macrophage in spleen at 50 mg/kg, IG administered twice daily for 14 days by flow cytometric analysis; type: functional, organism-based; conditions: time 14.0 day
[21] = system: MC-38; assay: Antitumor immunity against mouse MC-38 cells implanted in syngenic C57BL/6J mouse model assessed as upregulation of PD-L1 expression in dendritic cells at 50 mg/kg, IG administered twice daily for 14 days by flow cytometric analysis; type: functional, organism-based; conditions: time 14.0 day
[22] = system: MC-38; assay: Antitumor immunity against mouse MC-38 cells implanted in syngenic C57BL/6J mouse model assessed as upregulation of PD-L1 expression in macrophages at 50 mg/kg, IG administered twice daily for 14 days by flow cytometric analysis; type: functional, organism-based; conditions: time 14.0 day
[23] = system: MC-38; assay: Antitumor immunity against mouse MC-38 cells implanted in syngenic C57BL/6J mouse model assessed as upregulation of PD1 expression in CD8+ T cells at 50 mg/kg, IG administered twice daily for 14 days by flow cytometric analysis; type: functional, organism-based; conditions: time 14.0 day
[24] = Upregulation of PD-L1 expression in mouse MC-38 cells at 10 uM incubated for 48 hrs by flow cytometric analysis (reference value: 23.3%); type: functional
[25] = system: MC-38; assay: Antitumor activity against mouse MC-38 cells implanted in syngenic C57BL/6J mouse model assessed as tumor growth inhibition at 50 mg/kg, IG administered twice daily for 14 days in presence of anti-PD-L1 antibody relative to control; type: functional; conditions: MC-38, po, 336 h, time 14 day, read-out: TGI

Row | SMILES | Activity [1] | Activity [2] | Activity [3] | Activity [4] | Activity [5] | inhibition in vivo at 50 mg/kg [6] | Activity [7] | Activity [8] | Activity [9] | Activity [10] | Activity [11] | Activity [12] | Activity [13] | Activity [14] | Activity [15] | Activity [16] | Activity [17] | Activity [18] | Activity [19] | Activity [20] | other results
1 | COc1ccc(-c2ccc(CN(c3ccc4oc(C(=O)O)cc4c3)S(=O)(=O)c3ccc(Cl)c([N+](=O)[O-])c3)cc2)cc1 | Active | Active | inactive | inactive | Non-Toxic | 69.6% | Active | inactive | Active | Active | Active | Active | Active | Active | Active | Active | Active | Active | Active | Active | Activity [21]: Active; Activity [22]: Active; Activity [23]: Active; Activity [24]: 37.2%; inhibition in vivo at 50 mg/kg [25]: 94.3%
2 | O=C(O)c1cc2cc(N(Cc3ccc(OCc4ccccc4)cc3)S(=O)(=O)c3ccc(-c4ccccc4)cc3)ccc2o1 | Active | Active | inactive | inactive | Non-Toxic | 65% | Active | inactive | Active | Active | Active | Active | Active | Active | Active | Active | Active | Active | Active | Active | Activity [21]: Active; Activity [22]: Active; Activity [23]: Active; Activity [24]: 46.1%; inhibition in vivo at 50 mg/kg [25]: 94.3%
